Measurements published in PubChem BioAssay AID2286 (Southern Research Specialized Biocontainment Screening …, 2010).
Calls of active or inactive are those of the source.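 How the source made its calls: active means minimum cell viability of 80% or lower across the dose range, counted as toxic; inactive means minimum cell viability above 80%.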

Experiments:
[1] = viability loss in fusion assay cells – cell-based, MAGI and MAGI-HeLa co-culture, cytotoxicity control for HIV-1 fusion inhibitor project, dose response (AID 2286); conditions: MAGI-CCR5 cells viability, CellTiter-Glo ATP luminescence; for minimum viability: measured here: MAGI minimum viability across doses;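 on all read-outs here: cells exposed to compound for at least 64 h before ATP readout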;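 on minimum viability: 100% = median of DMSO vehicle wells with no ATP signal meaning 0%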;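 on viability: 100% = median of DMSO vehicle wells with no ATP signal meaning 0%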
[2] = tested on: MAGI-CCR5 cells viability, CellTiter-Glo ATP luminescence; assay: as above
[3] = MAGI-HeLa co-culture viability, at 50 µM, stronger effect = lower value
[4] = at 1.56 µM, stronger effect = lower value
[5] = measured here: MAGI + HeLa-R5-16 co-culture viability
[6] = at 3.13 µM, stronger effect = lower value
[7] = at 12.5 µM, stronger effect = lower value

| Structure (SMILES) | viability [1, 3] [%] | CC50 [2, 5] [µM] | minimum viability ([1]; at 50 µM, stronger effect = lower value) [%] | CC50 [2] [µM] | further results |
| --- | --- | --- | --- | --- | --- |
| CSc1nc(SCC(=O)O)c2sc3nc(-c4ccccc4)c4c(c3c2n1)CCC4 | 70.5 | > 50 | – | – | viability ([1]; at 25 µM (top of the series)): 99.5% (inactive); minimum viability [1, 4]: 88.2% |
| COc1ccc(-c2nn(-c3ccccc3)cc2/C=C2/SC(=S)N(CCCC(=O)O)C2=O)c(C)c1 | 68.8 | > 50 | 57 | – | – |
| O=C(N/N=C/c1ccc(-c2ccc(S(=O)(=O)Nc3ncccn3)cc2)o1)c1cc2ccccc2cc1O | 30.7 | 32.6 | 16.4 | 15.8 | – |
| O=C(O)CN1C(=O)/C(=C\c2cc(Br)ccc2OCc2ccc([N+](=O)[O-])cc2)SC1=S | 24.7 | 19.9 | 69.8 | – | – |
| O=[N+]([O-])c1cc(Cl)cc(/C=N/NC(=S)Nc2ccc(S(=O)(=O)N3CCOCC3)cc2)c1O | 65.6 | > 50 | – | – | viability ([1]; at 50 µM (top of the series)): 98.8% (inactive); minimum viability [1, 6]: 89.3% |
| Cc1ccc(C)c(S(=O)(=O)/N=C2\C=C(NS(=O)(=O)c3ccccc3)C(=O)c3ccccc32)c1 | 52.8 | > 50 | 40.6 | 43.1 | – |
| COc1ccc(C(=O)/C=C/c2ccc(OCc3ccccc3)cc2)cc1CSCC(=O)O | 86.3 | – | 42.6 | 46 | – |
| COc1ccc2c(c1)cc(C(=O)N/N=C/c1c(O)c(C(=O)O)cc3ccccc13)n2C | 75.1 | > 50 | – | – | viability ([1]; at 50 µM (top of the series)): 95.6% (inactive); minimum viability [1, 4]: 89.5% |
| O=C(O)CCn1cc(/C=C/C(=O)c2ccc(Cl)cc2)c(-c2ccc(Br)cc2)n1 | 36.4 | 45.5 | 11.5 | 30.7 | – |
| COc1cc(/C=C2/SC(=S)N(Cc3ccccc3)C2=O)ccc1OCC(=O)O | 79 | > 50 | 4.94 | 30.2 | – |
| O=c1cc(-c2ccccc2Cl)oc2c(NS(=O)(=O)c3cc(Cl)cc(Cl)c3O)ccc(O)c12 | 20.8 | 15.6 | 16.3 | 5.61 | – |
| O=C(Nc1cc(S(=O)(=O)N2CCCCC2)ccc1Cl)c1ccccc1NS(=O)(=O)c1ccc(F)cc1 | 24.8 | 7.38 | – | 2.49 | minimum viability [1, 7]: 19.1% |
| O=S(=O)(Nc1nc(-c2sccc2Cl)cs1)c1cc(Cl)ccc1Cl | 70.8 | > 50 | 47.7 | – | – |
| O=C(Nc1ccc(Oc2ccc(Cl)cc2)c(Cl)c1)c1cc(I)cc(I)c1O | 11.8 | 25.2 | 10.4 | 13.6 | – |
| O=[N+]([O-])c1cc(Cl)cc(/C=N/NC(=S)Nc2cc(S(=O)(=O)N3CCOCC3)ccc2Cl)c1O | 65.7 | > 50 | 34.7 | 31.1 | – |
| CCCCCC(=O)Cc1cc(O)cc2c1C(=O)Oc1cc(O)c(C(=O)O)c(CCCCC)c1O2 | 46.4 | 46.7 | 39.1 | 43.3 | – |
| COc1cc(/C=C(\C#N)c2nc3ccccc3s2)cc([N+](=O)[O-])c1O | 101 | – | 43.3 | 38.1 | – |
| CC(C)(C)c1ccc(OCC(=O)NNC(=S)NC(=O)c2ccccc2[N+](=O)[O-])c(Br)c1 | 67.6 | > 50 | 71 | – | – |
| Cc1ccccc1C(=O)Nc1cccc(C(=O)N/N=C/c2cc(Cl)cc([N+](=O)[O-])c2O)c1 | 68.4 | > 50 | 52.8 | – | – |
| CCOc1cc(/C=C2\C(=O)N(c3cccc(C(=O)O)c3)N=C2C(F)(F)F)ccc1OCC(=O)Nc1ccccc1OC | 51.6 | 47.3 | – | – | viability ([1]; at 25 µM (top of the series)): 88.7% (inactive); minimum viability ([1]; at 6.25 µM, stronger effect = lower value): 85.3% |
| O=C(O)CN1C(=O)/C(=C\c2ccccc2OCc2ccc(Cl)cc2Cl)SC1=S | 67.5 | > 50 | 84.5 | – | viability ([1]; at 50 µM (top of the series)): 84.5% (inactive) |
| O=[N+]([O-])c1cc([N+](=O)[O-])c2oc(-c3ccccc3)c(Br)c2c1O | 57.6 | > 50 | 34.5 | 22.5 | – |

| Structure (SMILES) | viability [1, 3] [%] | CC50 [2, 5] [µM] | minimum viability ([1]; at 50 µM, stronger effect = lower value) [%] | CC50 [2] [µM] | further results |
| --- | --- | --- | --- | --- | --- |
| O=C(O)C1Nc2c(O)cccc2C2C=CCC12 (stereo not drawn) | 21.6 | 22.4 | 23 | 18.6 | – |
| CCn1nc([N+](=O)[O-])c(C(C#N)c2nc3cc(C(F)(F)F)ccc3s2)c(Cl)c1=O (stereo not drawn) | – | – | 22.2 | 27.8 | – |
| O=C(NN1C(=O)/C(=C/c2ccc(O)c([N+](=O)[O-])c2)SC1=S)c1ccccc1Cl | 76.4 | > 50 | 67.5 | – | – |
| CC(C(=O)Nc1ccc(O)c(C(=O)O)c1)N1C(=O)/C(=C/c2cccs2)SC1=S (stereo not drawn) | 66.1 | > 50 | 51.2 | 46.4 | – |
| O=c1cc(-c2ccccc2)nc2c(-c3ccccc3)c(C(F)(F)F)[nH]n12 | 81.4 | – | 53.2 | 49.1 | – |
| Cc1cccc(C)c1-n1cccc1/C=C1\SC(=S)N(c2cccc(C(=O)O)c2)C1=O | 67.8 | > 50 | 62.3 | – | – |
| O=S(=O)(Nc1nc2ccccc2nc1Nc1cccc(S(=O)(=O)N2CCCCC2)c1)c1ccccc1 | 23.4 | 18.8 | 21.9 | 9.47 | – |
| O=C(O)c1cccc2c1NC(c1cccc([N+](=O)[O-])c1)C1CC(Sc3ccccc3[N+](=O)[O-])C(Cl)C21 (stereo not drawn) | 48.4 | 47.9 | 53.6 | – | – |
| O=C(O)c1ccccc1NC(=O)c1ccccc1Nc1ccccc1 | 58.2 | > 50 | 47.6 | 42.7 | – |
| CCc1oc2ccccc2c1C(=O)c1cc(Br)c(O)c(Br)c1 | 52.7 | > 50 | 38.8 | 43.5 | – |
| O=C(O)c1ccc(N/N=C/c2ccc(-c3cccc(Cl)c3)o2)cc1 | 10.1 | 2.83 | 21.6 | 10.3 | – |
| COc1cc(/C=C2\C(=N)N3N=C(S(C)(=O)=O)SC3=NC2=O)ccc1OCCOc1ccccc1C | 15 | 10 | 51.5 | – | – |
| CCCOc1cccc(C2C(C(=O)c3cc4ccccc4o3)=C(O)C(=O)N2c2cc(C)on2)c1 (stereo not drawn) | 90.1 | – | 49.1 | 49.8 | – |
| C/C(=N\Nc1ccc(C(=O)O)cc1)c1ccc2c(c1)Nc1ccccc1S2 | 52.7 | 26.2 | 47.2 | 46.2 | – |
| O=C(O)CN1C(=O)/C(=C\c2cc(Br)ccc2OCc2ccc(Cl)cc2)SC1=S | 52.4 | 48.6 | 90.5 | – | viability ([1]; at 50 µM (top of the series)): 90.5% (inactive) |
| COc1ccc(-c2nn(-c3ccccc3)cc2/C=C2/SC(=S)N(CCC(=O)O)C2=O)c(C)c1 | 71.9 | > 50 | 52 | 48.6 | – |
| COc1ccc(S(=O)(=O)Nc2ccccc2C(=O)Nc2nc(-c3ccc(F)cc3)cs2)cc1OC | 27.5 | 14.8 | 18.4 | 6.51 | – |
| O=C(OCC1OC(n2ncc(=O)[nH]c2=O)C(OC(=O)c2ccccc2)C1OC(=O)c1ccccc1)c1ccccc1 (stereo not drawn) | 111 | – | 44 | 42.2 | – |
| COc1cc([N+](=O)[O-])cc(/C=N/NC(=O)c2cc(-c3ccccc3)nc3ccccc23)c1O | 56.7 | > 50 | – | – | minimum viability ([1]; at 25 µM, stronger effect = lower value): 53.9% |
| COc1cccc(OCCOc2ccc(/C=C3\C(=N)N4N=C(S(C)(=O)=O)SC4=NC3=O)cc2OC)c1 | 38 | 35.8 | – | – | viability ([1]; at 50 µM (top of the series)): 97.2% (inactive); minimum viability [1, 6]: 91.2% |
| O=C(Nc1ccccc1Cc1ccccc1)c1ccccc1NS(=O)(=O)c1ccc(Cl)s1 | 26.2 | 5.85 | – | 1.68 | minimum viability [1, 7]: 15.3% |
| O=C1NC(=Nc2ccccc2Cl)S/C1=C\c1cccc([N+](=O)[O-])c1O | 73.6 | > 50 | 72.6 | – | – |
